From US20100029599A1, “Indolylamides as modulators of the EP2 receptor” (BAYER SCHERING PHARMA AKTIENGESELLSCHAFT, priority 2008, published 2010) come the findings set out here.

The structures appear in SMILES notation.

The subject of experiment [1] is cumulus-oocyte complexes (cumulus expansion). The experiment is described as follows: Cumulus expansion assay in vitro. In kind it is cell-based, mice. Particulars: in competition with PGE2. The method, then:
Folliculogenesis was induced in immature female mice (strain: CD1 (ICR) from Charles River) at an age of 14-18 days by a single dose (intraperitoneal) of 10 I.U. of PMSG (Pregnant Mare Serum Gonadotropin; Sigma G-4877, lot 68H0909). 47-50 hours after the injection, the ovaries were removed and the cumulus-oocyte complexes were removed. The cumulus complex is not yet expanded at this stage.
The cumulus-oocyte complexes were then incubated with prostaglandin E2 (PGE2) (0.3 μM), vehicle control (ethanol) or test substances for 20-24 hours. Medium: alpha-MEM medium with 0.1 mM IBMX, pyruvates (0.23 mM) glutamines (2 mM), pen/strep 100 IU/ml pen. and 100 μg/ml strep. and HSA (8 mg/ml). Cumulus expansion was then established through the division into four stages (according to Vanderhyden et al. Dev Biol. 1990 August; 140(2):307-317).

For experiment [2], the target named is T1, EP2 subtype of the human PGE2 receptor (Homo sapiens, UniProt P43116).
T1 construct: host or cells: cells in a cell culture plate
T1 sequence (P43116 whole entry): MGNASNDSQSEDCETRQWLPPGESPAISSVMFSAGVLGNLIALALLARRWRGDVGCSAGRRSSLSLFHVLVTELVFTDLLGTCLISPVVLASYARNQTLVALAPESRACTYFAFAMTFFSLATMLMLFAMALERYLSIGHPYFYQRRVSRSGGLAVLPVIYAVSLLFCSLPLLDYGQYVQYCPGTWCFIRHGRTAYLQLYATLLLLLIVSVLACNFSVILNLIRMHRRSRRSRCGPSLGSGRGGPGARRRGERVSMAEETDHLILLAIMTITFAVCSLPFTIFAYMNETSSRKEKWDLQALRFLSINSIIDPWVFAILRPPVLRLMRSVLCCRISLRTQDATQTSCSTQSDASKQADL
The experiment is described as follows: cellular cAMP agonism assay. In kind it is cell-based. Conditions: without PGE2. As for the experimental part: The binding of PGE2 to the EP2 subtype of the human PGE2 receptor induces activation of membrane-associated adenylate cyclases and leads to the formation of cAMP. In the presence of the phosphodiesterase inhibitor IBMX, cAMP which has accumulated due to this stimulation and been released by cell lysis is employed in a competitive detection method. In this assay, the cAMP in the lysate competes with cAMP-XL665 for binding of an Eu cryptate-labelled anti-cAMP antibody.
The two signals are measured in a suitable measuring instrument with a time lag, i.e. after the background fluorescence has declined.
The substance solutions (0.75 μl) introduced into an into an assay plate and 30% DMSO were dissolved in 16 μl of a KRSB+IBMX stimulation solution (1× Krebs-Ringer Bicarbonate Buffer; Sigma-Aldrich # K-4002; including 750 μM 3-isobutyl-1-methylxanthine Sigma-Aldrich # I-7018), and then 15 μl thereof were transferred into a media-free cell culture plate which has been washed with KRSB shortly beforehand.
After incubation at room temperature (RT; volume: ˜15 μl) for 60 minutes, the reaction was then stopped by adding 5 μl of lysis buffer and incubated at RT for a further 20 min (volume: ˜20 μl). The cell lysate was then transferred into a measuring plate and measured in accordance with the manufacturer's instructions (cyclic AMP kit Cisbio International # 62AMPPEC).

Regarding `CC(C)Oc1ccc2c(=O)c3cc(C(=O)O)ccc3oc2c1` [AH 6809, reference compound], the “suppression of the expansion of the cumulus” value in experiment [1] (100-200 μM) is “approx. 30%”.

With `Cc1[nH]c2c(F)ccc(C)c2c1CCNC(=O)c1cc2ccc(C(=O)NCC(N)=O)cc2[nH]1` [Example 6, 2-N-[2-(7-fluoro-2,4-dimethyl-1H-indol-3-yl)ethyl]-6-N-carbamoylmethyl-1H-indole-2,6-dicarboxamide], the “effect in the cellular agonism test” value in experiment [2] is given as “no inhibition”. Further, the “suppression of cumulus expansion” value in experiment [1] (5 μM) is “approx. 67%”.
